Patent US20120129927A1, “New Anthraquinone Derivatives” (SEALIFE PHARMA GMBH, priority 2009, published 2012)
≈ marks a conversion by molar mass, not a printed value. Entries after “also recorded” stand apart in the source; their conditions may differ. Like-named read-outs stand apart in the source and are kept apart here.

Columns and labels:
[1] = tested on: Gram-positive bacteria and the Gram-negative species Pseudomonas aeruginosa; conditions: Okamura et al., Phytochemistry 42(1); cited from earlier work
[2] = Yagi et al., Phytochemistry 34(4); cited from earlier work
Streptococcus pneumoniae = experiment: MIC test (titration method, EUCAST); assay type: cell-based; conditions: for MIC: read-out: MHK (MIC) STR
Protocol: (§1) The activities of the novel compounds were tested in two different screening systems. The antibacterial and antifungal activities were examined by means of an MIC test, MIC standing for “minimal inhibitory concentration” and referring to the lowest concentration of a substance at which no proliferation of microorganisms can be observed with the naked eye. The MIC is determined by means of a so called titration method in which the substance is diluted and, subsequently, the pathogen is added to it.
(§2) Usually, this method is applied in order to determine the concentration of an antibiotic which only just inhibits the growth of a bacterial strain. The MIC is indicated in micrograms per milliliter (μg/ml), and the dilutions are conventionally carried out in log 2 steps. Herein, a starting concentration of 250 μg/ml was diluted several times, to the double volume in each case, resulting in test concentrations of 250 μg/ml, 125 μg/ml, 62.5 μg/ml, 31.2 μg/ml, 15.6 μg/ml, 7.8 μg/ml, etc. Thus, lower values indicate a better activity as an anti-infective.
(§3) The tests were carried out according to the standards of EUCAST (European Committee for Antimicrobial Susceptibility Testing) and according to the AFST-protocol (“Antifungal Susceptibility Testing” protocol) of the European Society of Clinical Microbiology and Infectious Diseases (ESCMID).
(§4) In the following Table 3, the test results indicating the anti-infective action of 3-O-acetyl altersolanol M, alterporriol I and J as well as of some known and structurally similar comparative substances against some multi-resistant bacteria and fungi (all of which were kindly placed at our disposal by Prof Georgopulos from the Medical University of Vienna). The data constituting averages of the values obtained in multiple test runs.

E. coli = experiment: MIC test (titration method, EUCAST); assay type: cell-based; conditions: Escherichia coli, read-out: MHK (MIC) EC
Protocol: as §1, §2, §3, §4

[3] = tested on: Enterococcus faecalis or faecium; experiment: MIC test (titration method, EUCAST); assay type: cell-based; conditions: for MIC: read-out: MHK (MIC) EK
Protocol: as §1, §2, §3, §4

Klebsiella sp. = experiment: MIC test (titration method, EUCAST); assay type: cell-based; conditions: multi-resistant Klebsiella sp., averages of multiple test runs
Protocol: as §1, §2, §3, §4

Pseudomonas aeruginosa = experiment: MIC test (titration method, EUCAST); assay type: cell-based; conditions: multi-resistant Pseudomonas aeruginosa, averages of multiple test runs
Protocol: as §1, §2, §3, §4

Staphylococcus epidermis = experiment: MIC test (titration method, EUCAST); assay type: cell-based; conditions: for MIC: read-out: MHK (MIC) SE
Protocol: as §1, §2, §3, §4

[4] = tested on: methicillin-resistant Staphylococcus aureus; experiment: MIC test (titration method, EUCAST); assay type: cell-based; conditions: for MIC: MRSA, read-out: MHK (MIC) MRSA
Protocol: as §1, §2, §3, §4

[5] = tested on: Aspergillus fumigatus or faecalis; experiment: MIC test (AFST protocol); assay type: cell-based; conditions: multi-resistant Aspergillus fumigatus or faecalis, averages of multiple test runs; for MIC: read-out: MHK (MIC) ASP
Protocol: as §1, §2, §3, §4

melanoma cells [6] = experiment: Alamar Blue assay using melanoma cells; assay type: cell-based; conditions: for inhibition at 10 µg/mL: read-out: inhibition / reduction of the number of melanoma cells
Protocol: In this test, the dye resazurin is used as an indicator for measuring the cytotoxicity of substances. […] Depending on the degree of their toxicity, cytotoxic agents decelerate or stop this reduction.
In the course of this experiment, melanoma cells were treated with several concentrations of 3-O-acetyl altersolanol M, i.e. with 1, 10, and 50 μg/ml, with altersolanol K and alterporriol F as comparative substances, as well as with alterporriol I+J, i.e. compound (5) of the present invention, at respective concentrations of 10 μg/ml, and incubated for 48 h, whereafter the samples' fluorescence was determined spectrophotometrically at 570/600 nm, the fluorescence being proportional to the number of surviving cells in the samples.
The measurement results were related to the fluorescence of a blank, to which no cytotoxic agent had been added, and are shown in a graph in FIG. 1.

[7] = Electrical Cell Substrate Impedance Sensing (ECIS) test; assay type: cell-based; conditions: results not indicated, comparison only
melanoma cells [8] = experiment: Three-dimensional tumor test in matrix gel; assay type: cell-based; conditions: 30, 50 or 3,000 μg/ml, 37° C.
Protocol: In addition to the above two-dimensional test, the cytotoxic action of 3-O-acetyl altersolanol M was also examined in an innovative three-dimensional test system. In this test, small tumors are grown in a matrix gel, in which the activity of an anti-cancer agent may be directly tested by adding said agent at different concentrations. A blank, i.e. melanoma cells without any cytotoxic agent, and an equal amount of melanoma cells together with 30, 50 or 3,000 μg/ml of 3-O-acetyl altersolanol M were incubated in the matrix gel for 120 hours at 37° C.

bacteria and fungi = conditions: Aly et al., Phytochemistry 69; cited from earlier work
[9] = multi-resistant Streptococcus pneumoniae, averages of multiple test runs
[10] = multi-resistant E. coli, averages of multiple test runs
[11] = multi-resistant Enterococcus faecalis or faecium, averages of multiple test runs
[12] = multi-resistant Staphylococcus epidermis, averages of multiple test runs
[13] = methicillin-resistant Staphylococcus aureus, averages of multiple test runs
[14] = 10 μg/ml, 48 h, relative to blank

COc1cc(O)c2c(c1)[C@H](O)[C@H]1C[C@](C)(O)[C@H](O)C[C@@H]1C2=O [tetrahydroaltersolanol B]
effect against Gram-positive bacteria and Pseudomonas aeruginosa [1]: do not disclose any effect

COc1cc(O)c2c(c1)C(=O)C1=C(C[C@@H](O)[C@@](C)(O)C1)C2=O [altersolanol B]
anti-microbial activity [2]: anti-microbial activity

Macrosporin sulfate
MHK (MIC) STR (Streptococcus pneumoniae; [9]): 31.2 µg/mL

COc1cc(O)c2c(c1)C(=O)C1=C(C2=O)[C@@H](O)[C@H](OC(C)=O)[C@@](C)(O)[C@@H]1O [Example 1, (1R,2S,3S,4R)-3-acetoxy-1,2,4,5-tetrahydroxy-7-methoxy-2-methyl-1,2,3,4-tetrahydroanthracene-9,10-dione]
MIC (E. coli; [10]): 125 µg/mL (≈ 330 µM) | MIC [3, 11]: 7.8 µg/mL (≈ 20.6 µM) | MIC (Klebsiella sp.; read-out: MHK (MIC) KL): 125 µg/mL (≈ 330 µM) | MIC (Pseudomonas aeruginosa; read-out: MHK (MIC) PS): 125 µg/mL (≈ 330 µM) | MIC (Staphylococcus epidermis; [12]): 7.8 µg/mL (≈ 20.6 µM) | MIC (Streptococcus pneumoniae; [9]): 7.8 µg/mL (≈ 20.6 µM) | MIC [4, 13]: 7.8 µg/mL (≈ 20.6 µM) | MIC [5]: 62.5 µg/mL (≈ 165 µM) | inhibition at 1 µg/mL (melanoma cells [6]; 1 μg/ml, 48 h, relative to blank, read-out: inhibition of the number of surviving cells): > 10% | inhibition at 10 µg/mL (melanoma cells [6]; [14]): ~50% | surviving cells (in words) (melanoma cells [6]; 50 μg/ml, 48 h): hardly possible to detect any surviving cells | cytotoxic effectiveness relative to alterporriol I/J (melanoma cells [6]; Alamar Blue, melanoma cells): at least 10 times | ECIS result (in words) [7]: clearly better results than alterporriol I/J | tumor appearance after 24 hours (melanoma cells [8]; 24 hours): signs of degeneration | tumor size after 120 hours (melanoma cells [8]; 120 hours): clearly reduced in size

COc1cc(O)c2c(c1)C(=O)C1=C(C[C@@H](O)[C@@](C)(O)[C@@H]1O)C2=O [altersolanol C]
anti-microbial activity [2]: anti-microbial activity

COc1cc(O)c2c(c1)[C@H](O)[C@@H]1[C@@H](C2=O)[C@H](O)[C@@H](O)[C@@](C)(O)[C@@H]1O [Ampelanol]
activity against bacteria and fungi (bacteria and fungi): do not show any activity against bacteria and fungi

COc1cc(O)c2c(c1-c1c(OC)cc(O)c3c1C(=O)c1cc(C)c(O)c(O)c1C3=O)C(=O)C1=C(C2=O)[C@H](O)[C@@H](O)[C@@](C)(O)[C@H]1O [Example 2, 8-(4,5,6-trihydroxy-7-methyl-2-methoxy-9,10-dioxo-9H,10H-anthracen-1-yl)-(1S,2S,3R,4S)-1,2,3,4,5-pentahydroxy-7-methoxy-2-methyl-1,2,3,4-tetrahydro-9H,10H-anthracene-9,10-dione]
MIC [3, 11]: 7.8 µg/mL (≈ 12.3 µM) | MIC (Staphylococcus epidermis; [12]): 7.8 µg/mL (≈ 12.3 µM) | MIC (Streptococcus pneumoniae; [9]): 7.8 µg/mL (≈ 12.3 µM) | MIC [4, 13]: 7.8 µg/mL (≈ 12.3 µM) | MIC [5]: 125 µg/mL (≈ 197 µM) | result compared with comparative substances (in words) (melanoma cells [6]; 10 μg/ml, 48 h): slightly better results than the two comparative examples | inhibition at 10 µg/mL (melanoma cells [6]; [14]): > 10%

altersolanol E
anti-microbial activity [2]: anti-microbial activity; also recorded: completely ineffective

Indole carbaldehyde (carboxaldehyde)
MHK (MIC) PS (Pseudomonas aeruginosa): 125 µg/mL | MHK (MIC) STR (Streptococcus pneumoniae; [9]): 62.5 µg/mL

altersolanol F
anti-microbial activity [2]: completely ineffective

altersolanol D
anti-microbial activity [2]: completely ineffective

COc1cc(O)c2c(c1)C(=O)[C@H]1C[C@](C)(O)[C@H](O)C[C@@H]1[C@H]2O [Altersolanol J]
MHK (MIC) EK [3, 11]: 31.2 µg/mL | MHK (MIC) KL (Klebsiella sp.): 125 µg/mL | MHK (MIC) SE (Staphylococcus epidermis; [12]): 62.5 µg/mL | MHK (MIC) STR (Streptococcus pneumoniae; [9]): 15.6 µg/mL | MHK (MIC) MRSA [4, 13]: 62.5 µg/mL | MHK (MIC) ASP [5]: 125 µg/mL | activity against bacteria and fungi (bacteria and fungi): do not show any activity against bacteria and fungi

alterporriol E
activity against bacteria and fungi (bacteria and fungi): do not show any activity against bacteria and fungi

COc1cc(O)c2c(c1-c1c(OC)cc(O)c3c1C(=O)C1=C(C3=O)[C@H](O)[C@@H](O)[C@@](C)(O)[C@@H]1O)C(=O)C1=C(C2=O)[C@H](O)[C@@H](O)[C@@](C)(O)[C@@H]1O [alterporriol D]
activity against bacteria and fungi (bacteria and fungi): do not show any activity against bacteria and fungi

COC1=CC(=O)c2c(O)c3c(c(O)c2C1=O)C[C@](C)(O)[C@H](O)[C@H]3O [Bostrycin]
MIC (Staphylococcus epidermis; [12]): 125 µg/mL (≈ 372 µM) | MIC (Streptococcus pneumoniae; [9]): 62.5 µg/mL (≈ 186 µM) | MIC [4, 13]: 125 µg/mL (≈ 372 µM)

COc1cc(O)c(C(=O)O)c(-c2cc(O)c(O)cc2C)c1 [Altenusin]
MIC (E. coli): 62.5 µg/mL (≈ 215 µM) | MIC ([3]; Enterococcus faecalis): 62.5 µg/mL (≈ 215 µM) | MIC (Staphylococcus epidermis; Staphylococcus): 31.2 µg/mL (≈ 107 µM) | MIC (Streptococcus pneumoniae; Streptococcus pneumoniae): 31.2 µg/mL (≈ 107 µM) | MIC ([4]; Staphylococcus aureus): 31.2 µg/mL (≈ 107 µM)

Alterporriol A + B
MHK (MIC) EK [3, 11]: 15.6 µg/mL | MHK (MIC) SE (Staphylococcus epidermis; [12]): 15.6 µg/mL | MHK (MIC) STR (Streptococcus pneumoniae; [9]): 7.8 µg/mL | MHK (MIC) MRSA [4, 13]: 15.6 µg/mL | MHK (MIC) ASP [5]: 62.5 µg/mL

COc1cc(O)c2c(c1)C(=O)c1cc(C)c(O)cc1C2=O [Macrosporin]
MIC (E. coli; [10]): 62.5 µg/mL (≈ 220 µM) | MIC (Staphylococcus epidermis; [12]): 62.5 µg/mL (≈ 220 µM) | MIC [4, 13]: 62.5 µg/mL (≈ 220 µM)

COc1cc(O)c2c(c1)C(=O)C1=C(C2=O)[C@H](O)[C@@H](O)[C@@](C)(O)[C@@H]1O [Altersolanol A, 7-methoxy-2-methyl-(1R,2S,3R,4S)-1,2,3,4-tetrahydro-1,2,3,4,5-pentahydroxy-anthracene-9,10-dione]
MIC (E. coli; [10]): 62.5 µg/mL (≈ 186 µM) | MIC [3, 11]: 15.6 µg/mL (≈ 46.4 µM) | MIC (Staphylococcus epidermis; [12]): 7.8 µg/mL (≈ 23.2 µM) | MIC (Streptococcus pneumoniae; [9]): 7.8 µg/mL (≈ 23.2 µM) | MIC [4, 13]: 7.8 µg/mL (≈ 23.2 µM) | MIC [5]: 7.8 µg/mL (≈ 23.2 µM) | activity against bacteria and fungi (bacteria and fungi): the most efficient of the tested substances | anti-microbial activity [2]: anti-microbial activity
